Patent publication US4798827A, “Synergistin derivatives and pharmaceutical compositions which contain them” (Rhone-Poulenc Sante, priority 1986, dated 1989)
Numbered stars: 1 amine (or outer) side, 2 acyl side, 3 side chain; on linkers, the order of the positions; unused ones are H or OH. Bridge positions count the residues as written; N and C are the ends. Square brackets hold non-standard residues; d marks the D form. Peptide text beside a SMILES is read from it. * marks the point of attachment. X1 = O=C1C[C@@H](C(=O)[*:2])N([*:1])C[C@H]1CS[C@@H]1CN2CCC1CC2; NMePhe(4-NMe2) = CN[C@@H](Cc1ccc(N(C)C)cc1)C(=O)O; Picolinoyl(3-OH) = O=C(c1ncccc1O)*; Phg = N[C@H](C(=O)O)c1ccccc1; dAbu = CC[C@@H](N)C(=O)O

Test: solubility in water (as salts / hydrochlorides)
Conditions: product with 0.1N hydrochloric acid and distilled water

CC[C@H]1NC(=O)[C@@H](NC(=O)c2ncccc2O)[C@@H](C)OC(=O)[C@H](c2ccccc2)NC(=O)[C@@H]2CC(=O)[C@H](CS[C@@H]3CN4CCC3CC4)CN2C(=O)[C@H](Cc2ccc(N(C)C)cc2)N(C)C(=O)[C@@H]2CCCN2C1=O [Example 1, 5δ-[(3-Quinuclidinyl)thiomethyl]pristinamycin IA] ({Picolinoyl(3-OH)}-T[dAbu]P[NMePhe(4-NMe2)][X1][Phg]; ester 1-C)
strength of aqueous solution obtained: 5%
